Series [1] addresses T1, rat TRPA1 (rTRPA1) (Rattus norvegicus, UniProt Q6RI86).
T1 construct: expressed in transfected cells
As to the kind of experiment: Fluo-4 intracellular calcium assay, inhibition of AITC-induced [Ca2+] response in CHO cells expressing rTRPA1. The format is cell-based. As to conditions: for EC50 (µM) rTRPA1: inhibitory activity, CHO cells expressing rTRPA1, agonist 100 μM AITC, preincubation 30 min at 37 °C. As to the method:
(§1) The guanidine alkaloids (1–4) were tested on inhibitory activities against rTRPV1 (Figure 2A), mTRPV2 (Figure 2B), hTRPV3 (Figure 2C) and rTRPA1 receptors expressed in CHO (Chinese hamster ovary) cells in a Fluo-4–based intracellular calcium assay.
(§2) The effect of 1–4 on all the TRP-expressing cells was measured after preincubation at 37 °C for 30 min for standardization. […] Capsazepine (CZP) or non-specific blocker ruthenium red (RR) were used as a positive control for TRPV1 and for the other studied TRP receptors correspondingly.
(§3) The mouse TRPV2 gene was cloned form pancreatic beta cell line MIN6 and the CHO cell line stably expressing mouse TRPV2 was generated using T-Rex System (Thermo Fisher Scientific Inc., Waltham, MA, USA) similarly previously obtained stable cell lines for rat TRPV1, human TRPV3 and rat TRPA1 [6, 8]. Fluorescent assays were performed as described in [6]. The alkaloid’s solutions of desired concentration were obtained by serial dilution of water stock solutions (10 mg/mL) in calcium assay buffer (10 mM HEPES/HBSS, pH 7.4). The buffer alone (negative control) or serial dilutions of alkaloids 1–4 (20 μl) were added to the cells loaded with the cytoplasmic calcium indicator Fluo-4AM using Fluo-4 Direct™ Calcium Assay Kit (Thermo Fisher Scientific Inc., Waltham, MA, USA) (80 μl) and the cells were incubated 30 min at 37 °C. Changes in cell fluorescence (λex = 485 nm, λem = 520 nm) were monitored using NOVO star (BMG LABTECH, Ortenberg, Germany) before and after the addition of relevant agonist (500 nM capsaicin for rTRPV1, 300 μM 2APB for mTRPV2, 200 μM 2APB for hTRPV3, 100 μM AITC for rTRPA1) at 25 °C. Average cell responses to agonists in controls were about 60, 45, 40, 85% of the responses produced by 5 μM ionomycin for rTRPV1, mTRPV2, hTRPV3, rTRPA1 correspondingly. To avoid the spread of the data due to prolonged instrumental measurement each experimental point has control in the nearest plate wells. Curve fitting and parameter estimations were performed with Microsoft Excel 2007 (Microsoft Corporation, Redmond, WA, USA) and Origin 7.0 (OriginLab Corporation, Northampton, MA, USA). The EC50 values were determined as the concentration of test substance required to produce half-maximal decreases in [Ca^2+].
A general note: Calcium flux is commonly read through the fluorescence of an indicator in the cells.

The target of a further series is T2, mouse TRPV2 (mTRPV2) (Mus musculus, UniProt Q9WTR1).
T2 construct: expressed in transfected cells
T2 sequence (Q9WTR1 1-756): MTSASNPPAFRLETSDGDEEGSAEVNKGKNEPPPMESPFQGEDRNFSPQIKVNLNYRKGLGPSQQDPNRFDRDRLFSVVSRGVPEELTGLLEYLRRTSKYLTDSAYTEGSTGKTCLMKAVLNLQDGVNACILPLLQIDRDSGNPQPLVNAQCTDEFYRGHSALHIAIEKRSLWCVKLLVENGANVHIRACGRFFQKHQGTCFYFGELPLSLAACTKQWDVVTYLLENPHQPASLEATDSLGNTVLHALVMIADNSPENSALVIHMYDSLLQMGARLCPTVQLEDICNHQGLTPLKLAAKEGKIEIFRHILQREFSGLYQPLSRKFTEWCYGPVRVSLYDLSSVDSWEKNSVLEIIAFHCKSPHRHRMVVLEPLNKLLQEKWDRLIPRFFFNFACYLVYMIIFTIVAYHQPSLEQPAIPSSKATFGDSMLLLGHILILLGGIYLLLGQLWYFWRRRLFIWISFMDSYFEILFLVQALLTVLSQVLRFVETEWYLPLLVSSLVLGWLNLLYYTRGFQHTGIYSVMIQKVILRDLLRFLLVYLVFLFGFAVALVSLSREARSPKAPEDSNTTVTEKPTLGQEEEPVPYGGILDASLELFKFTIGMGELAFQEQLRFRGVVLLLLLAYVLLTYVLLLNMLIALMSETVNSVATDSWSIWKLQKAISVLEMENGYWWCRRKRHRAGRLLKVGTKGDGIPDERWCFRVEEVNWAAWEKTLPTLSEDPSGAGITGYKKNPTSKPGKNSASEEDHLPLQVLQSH
The experiment in a line: Fluo-4 intracellular calcium assay, inhibition of 2APB-induced [Ca2+] response in CHO cells expressing mTRPV2. The format is cell-based. As to the method: as §1
(§4) Figure 2 Dose-response curves for monanchomycalin B (1), urupocidin A (2), semi-synthetic urupocidin A derivatives (3, 4) inhibitory activity on agonist-induced [Ca^2+] responses in CHO cells expressing rTRPV1 (A); mTRPV2 (B); hTRPV3 (C). Responses were measured as the pseudo-ratio (ΔFI/FI) determined using the following formula ΔFI/FI = (FI-FIbase)/FIbase, where FI is the measured peak fluorescence intensity, Fbase is the fluorescence intensity in non-stimulated cells. Inhibitory activity was expressed as the percentage of the response in the control experiment (untreated by alkaloids cells). Data are expressed as mean ± s.e. (n = 4–8).
as §2
The mouse TRPV2 gene was cloned form pancreatic beta cell line MIN6 and the CHO cell line stably expressing mouse TRPV2 was generated using T-Rex System (Thermo Fisher Scientific Inc., Waltham, MA, USA) similarly previously obtained stable cell lines for rat TRPV1, human TRPV3 and rat TRPA1 [6, 8]. Fluorescent assays were performed as described in [6]. […] Changes in cell fluorescence (λex = 485 nm, λem = 520 nm) were monitored using NOVO star (BMG LABTECH, Ortenberg, Germany) before and after the addition of relevant agonist (500 nM capsaicin for rTRPV1, 300 μM 2APB for mTRPV2, 200 μM 2APB for hTRPV3, 100 μM AITC for rTRPA1) at 25 °C. […] The EC50 values were determined as the concentration of test substance required to produce half-maximal decreases in [Ca^2+].

The target of series [2] is T3, human TRPV3 (hTRPV3) (Homo sapiens, UniProt Q8NET8).
T3 construct: expressed in transfected cells
T3 sequence (Q8NET8 1-790): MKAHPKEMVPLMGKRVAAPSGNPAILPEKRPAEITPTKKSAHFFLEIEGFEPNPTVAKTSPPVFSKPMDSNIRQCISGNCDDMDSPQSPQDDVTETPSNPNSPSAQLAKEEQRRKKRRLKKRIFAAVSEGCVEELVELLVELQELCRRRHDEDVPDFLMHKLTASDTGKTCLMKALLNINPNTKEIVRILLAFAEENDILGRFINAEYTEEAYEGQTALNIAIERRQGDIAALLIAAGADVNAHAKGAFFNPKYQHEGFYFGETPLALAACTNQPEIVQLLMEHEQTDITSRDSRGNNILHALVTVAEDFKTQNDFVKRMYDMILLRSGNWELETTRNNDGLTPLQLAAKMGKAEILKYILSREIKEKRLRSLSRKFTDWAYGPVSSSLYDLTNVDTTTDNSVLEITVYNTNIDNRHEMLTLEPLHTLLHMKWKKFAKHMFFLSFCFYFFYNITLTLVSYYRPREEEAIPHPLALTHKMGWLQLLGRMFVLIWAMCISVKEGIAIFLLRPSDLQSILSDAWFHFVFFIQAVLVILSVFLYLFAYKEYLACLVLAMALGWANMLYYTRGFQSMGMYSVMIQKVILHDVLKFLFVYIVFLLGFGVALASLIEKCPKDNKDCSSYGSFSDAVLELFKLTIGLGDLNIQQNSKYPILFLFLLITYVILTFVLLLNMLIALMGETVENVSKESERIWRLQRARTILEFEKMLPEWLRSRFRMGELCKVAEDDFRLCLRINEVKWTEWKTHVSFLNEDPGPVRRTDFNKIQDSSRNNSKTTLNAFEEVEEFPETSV
The experiment in a line: Fluo-4 intracellular calcium assay, inhibition of 2APB-induced [Ca2+] response in CHO cells expressing hTRPV3. Type of series: cell-based. As to the method:
as §1, §4, §2, §3

For series [3], the target named is T4, rat TRPV1 (rTRPV1) (Rattus norvegicus, UniProt O35433).
T4 construct: expressed in transfected cells
The experiment in a line: Fluo-4 intracellular calcium assay, inhibition of capsaicin-induced [Ca2+] response in CHO cells expressing rTRPV1. The format is cell-based. As to the method: as §1, §4, §2, §3

Series [4] deals with T3, human TRPV3 (hTRPV3). Details: method as in doi:10.1007/s10600-015-1243-6, doi:10.1016/j.tetlet.2012.12.099. The settings on record: determined in the same test system; read-out: EC50, inhibitory activity toward hTRPV3; cited from earlier work.
Series [5] concerns the target T1, rat TRPA1 (rTRPA1). Set-up: method as in doi:10.1007/s10600-015-1243-6. As to conditions: read-out: EC50, inhibition of rTRPA1; cited from earlier work.
Series [6] concerns the target T4, rat TRPV1 (rTRPV1). Details: method as in doi:10.1007/s10600-015-1243-6, doi:10.1016/j.tetlet.2012.12.099. As to conditions: determined in the same test system; read-out: EC50, inhibitory activity against rTRPV1; cited from earlier work.
Series [7] deals with HL-60 human leukemia cells. Details: method as in doi:10.1016/j.tetlet.2012.05.162. As to conditions: cited from earlier work.
Where [8] appears, read: 20 µM RR, positive control, data not shown.
The mark [9] stands for this setting: inhibitory activity, CHO cells expressing hTRPV3, agonist 200 μM 2APB, preincubation 30 min at 37 °C, mean ± s.e., read-out: EC50 (µM) hTRPV3.
[10] abbreviates: inhibitory activity, CHO cells expressing rTRPV1, agonist 500 nM capsaicin, preincubation 30 min at 37 °C, mean ± s.e., read-out: EC50 (µM) rTRPV1.

As a reminder, the EC50 is the concentration giving half of the maximal effect.

Like-named read-outs stand apart in the source and are kept apart here.

T4 sequence (O35433 whole entry): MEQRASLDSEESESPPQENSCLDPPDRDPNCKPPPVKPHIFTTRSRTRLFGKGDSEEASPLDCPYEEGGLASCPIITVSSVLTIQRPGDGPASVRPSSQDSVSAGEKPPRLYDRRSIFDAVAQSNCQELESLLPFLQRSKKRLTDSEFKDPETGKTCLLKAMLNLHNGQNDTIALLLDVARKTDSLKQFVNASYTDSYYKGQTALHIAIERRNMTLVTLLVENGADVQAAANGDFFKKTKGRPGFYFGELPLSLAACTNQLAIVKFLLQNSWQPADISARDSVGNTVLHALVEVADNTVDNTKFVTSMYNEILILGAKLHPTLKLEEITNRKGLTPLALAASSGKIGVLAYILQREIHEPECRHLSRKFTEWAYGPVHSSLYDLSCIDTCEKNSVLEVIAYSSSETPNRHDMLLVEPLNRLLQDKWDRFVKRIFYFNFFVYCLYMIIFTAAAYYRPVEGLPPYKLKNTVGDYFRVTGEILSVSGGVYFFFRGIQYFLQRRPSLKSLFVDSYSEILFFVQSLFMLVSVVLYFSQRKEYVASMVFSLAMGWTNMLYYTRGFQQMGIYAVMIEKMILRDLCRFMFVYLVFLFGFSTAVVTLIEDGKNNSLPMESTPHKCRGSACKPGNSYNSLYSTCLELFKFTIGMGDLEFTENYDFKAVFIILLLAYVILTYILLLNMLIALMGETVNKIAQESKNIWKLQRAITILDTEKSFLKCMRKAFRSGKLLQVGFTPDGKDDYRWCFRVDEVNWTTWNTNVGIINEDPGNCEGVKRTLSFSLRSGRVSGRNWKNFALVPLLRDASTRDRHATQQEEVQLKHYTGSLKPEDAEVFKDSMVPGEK
T1 sequence (Q6RI86 whole entry): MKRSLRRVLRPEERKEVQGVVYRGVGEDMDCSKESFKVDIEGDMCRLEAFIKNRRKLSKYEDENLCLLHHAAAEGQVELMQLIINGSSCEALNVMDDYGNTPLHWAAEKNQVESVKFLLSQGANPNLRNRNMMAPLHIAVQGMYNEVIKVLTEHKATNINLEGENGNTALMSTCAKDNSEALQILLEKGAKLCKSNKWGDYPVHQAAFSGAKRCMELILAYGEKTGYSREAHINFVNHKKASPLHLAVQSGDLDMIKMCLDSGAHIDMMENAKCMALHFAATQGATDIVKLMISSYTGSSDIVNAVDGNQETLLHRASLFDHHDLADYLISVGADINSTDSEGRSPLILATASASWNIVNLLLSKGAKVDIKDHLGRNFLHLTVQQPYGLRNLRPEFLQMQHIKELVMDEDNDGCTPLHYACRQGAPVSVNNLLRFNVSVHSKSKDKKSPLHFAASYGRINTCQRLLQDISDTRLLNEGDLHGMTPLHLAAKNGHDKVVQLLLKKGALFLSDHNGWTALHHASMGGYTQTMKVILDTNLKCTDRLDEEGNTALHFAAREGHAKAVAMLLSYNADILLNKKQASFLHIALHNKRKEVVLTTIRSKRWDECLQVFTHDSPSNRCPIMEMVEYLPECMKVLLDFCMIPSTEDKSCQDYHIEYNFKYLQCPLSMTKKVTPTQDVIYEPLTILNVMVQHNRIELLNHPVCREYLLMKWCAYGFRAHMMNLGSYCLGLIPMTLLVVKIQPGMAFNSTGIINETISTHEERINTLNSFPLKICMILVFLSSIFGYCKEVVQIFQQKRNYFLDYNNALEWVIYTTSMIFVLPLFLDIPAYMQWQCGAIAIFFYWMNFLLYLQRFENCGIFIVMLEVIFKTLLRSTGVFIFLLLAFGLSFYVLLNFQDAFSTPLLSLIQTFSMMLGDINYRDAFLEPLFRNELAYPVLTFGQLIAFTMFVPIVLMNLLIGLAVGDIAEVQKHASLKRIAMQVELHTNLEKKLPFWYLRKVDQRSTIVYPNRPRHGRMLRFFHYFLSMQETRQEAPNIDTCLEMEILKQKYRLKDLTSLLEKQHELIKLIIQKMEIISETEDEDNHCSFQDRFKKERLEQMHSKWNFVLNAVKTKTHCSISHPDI

Consider `N.N.N.N.N.N.N.N.N.N.N.N.N.N.[Cl-].[Cl-].[Cl-].[Cl-].[Cl-].[Cl-].[O-2].[O-2].[Ru+3].[Ru+3].[Ru+4]` [RR, ruthenium red, reference compound], for which the “Inhibition of the [Ca2+] response induced by specific agonist (TRPA1)” value on rat TRPA1 (rTRPA1) [1] (setting [8]) was “full inhibition”. Moreover, on mouse TRPV2 (mTRPV2) (setting [8]), the “Inhibition of the [Ca2+] response induced by specific agonist (TRPV2)” value is given as “full inhibition”. The “Inhibition of the [Ca2+] response induced by specific agonist (TRPV3)” value at human TRPV3 (hTRPV3) [2] (setting [8]) is on record as “full inhibition”.

Turning to `CCCCCCC[C@@H](O)C[C@H]1CCC2=C(C(=O)OCCCCN(O)C(=N)N)[C@H](CCCCCCC)NC(=N)N21` [Compound 3, Tetrahydrourupocidin A], on rat TRPA1 (rTRPA1) [1], the “EC50 (µM) rTRPA1” value is “not active”. Besides, the EC50 on human TRPV3 (hTRPV3) [2] (setting [9]) is 29.2 ± 3.18 µM; at rat TRPV1 (rTRPV1) [3] (setting [10]), 52.8 ± 5.31 µM.

As to `C1=C/[C@H]2[C@@H]3CCCC[C@H]3C[C@@H]2NCCCN[C@@H]2C[C@@H]3CCCC[C@H]3[C@@H]2/C=C/1` [haliclonadiamine], the EC50 is 77 µM at human TRPV3 (hTRPV3) [4], 86.7 µM on rat TRPA1 (rTRPA1) [5] and 19.9 µM on rat TRPV1 (rTRPV1) [6].

Turning to `CCC/C=C\CC[C@@H](O)C[C@H]1CCC2=C(C(=O)OC)[C@H](CC/C=C\CCC)NC(=N)N21` [Compound 4], the “EC50 (µM) rTRPA1” value at rat TRPA1 (rTRPA1) [1] is on record as “not active”. Further, the “EC50 (µM) hTRPV3” value at human TRPV3 (hTRPV3) [2] (inhibitory activity, CHO cells expressing hTRPV3, agonist 200 μM 2APB, preincubation 30 min at 37 °C, mean ± s.e.) is given as “almost not active”. Also, the figures for the EC50 on human TRPV3 (hTRPV3) [2] (setting [9]) and at rat TRPV1 (rTRPV1) [3] (setting [10]) were 193 ± 25.5 µM and 435 ± 49.9 µM, respectively. Further, the “EC50 (µM) rTRPV1” value at rat TRPV1 (rTRPV1) [3] (inhibitory activity, CHO cells expressing rTRPV1, agonist 500 nM capsaicin, preincubation 30 min at 37 °C, mean ± s.e.) is “almost not active”.

As to `Oc1cc2c(cc1O)CN(C(=S)NCCc1ccc(Cl)cc1)CCC2` [CZP, Capsazepine, reference compound], on rat TRPV1 (rTRPV1) [3] (10 µM CZP, positive control, data not shown), the “Inhibition of the [Ca2+] response induced by specific agonist (TRPV1)” value was “full inhibition”.

In the case of `CCC/C=C\CC[C@@H](O)C[C@H]1CCC2=C(C(=O)OCCCCN(O)C(=N)N)[C@H](CC/C=C\CCC)NC(=N)N21` [Compound 2, urupocidin A], the “EC50 (µM) rTRPA1” value on rat TRPA1 (rTRPA1) [1] is on record as “not active”. The EC50 on mouse TRPV2 (mTRPV2) (inhibitory activity, CHO cells expressing mTRPV2, agonist 300 μM 2APB, preincubation 30 min at 37 °C, mean ± s.e., read-out: EC50 (µM) mTRPV2) was determined as 28.1 ± 6.65 µM; at human TRPV3 (hTRPV3) [2] (setting [9]), 23.6 ± 2.03 µM; at rat TRPV1 (rTRPV1) [3] (setting [10]) it was 21.5 ± 2.51 µM.

Take pulchranin A: the EC50 is 71.8 µM on human TRPV3 (hTRPV3) [4], 174 µM at rat TRPA1 (rTRPA1) [5] and 27.5 µM on rat TRPV1 (rTRPV1) [6].

In the case of `CCC=CC1CCC2(CC3CCC4C(C(=O)OCCCCCCCCCCCCCCCC(=O)N(CCCN)CCCCN)C5(CCCC(C)O5)NC(=[N+]34)N2)O1` (stereo not drawn) [Compound 1, monanchomycalin B], in series [7], the “Cytotoxic activities against HL-60 human leukemia cells” value is reported as “potent cytotoxic activities”. Moreover, the “EC50 (µM) rTRPA1” value on rat TRPA1 (rTRPA1) [1] is on record as “not active”. Also, the EC50 on mouse TRPV2 (mTRPV2) stood at 2.84 ± 1.01 µM; at human TRPV3 (hTRPV3) [2], 3.25 ± 0.6 µM; at rat TRPV1 (rTRPV1) [3], 6.02 ± 0.36 µM.

Values taken from paper PMC5408233, “Marine Cyclic Guanidine Alkaloids Monanchomycalin B and Urupocidin A Act as Inhibitors of TRPV1, TRPV2 and TRPV3, but not TRPA1 Receptors” (Marine Drugs, 2017).
